Data: publication PMC9862096, “Interaction of a Homologous Series of Amphiphiles with P-glycoprotein in a Membrane Environment—Contributions of Polar and Non-Polar Interactions” (Pharmaceutics, 2023)
Like-named read-outs stand apart in the source and are kept apart here.

What was measured:
mouse P–gp (mP–gp) = biological target: T1, mouse P–gp (mP–gp) (Mus musculus, UniProt P21447); test: P–gp ATPase activity (vanadate-sensitive, end point Pi release) in native membranes; type: biochemical
T1 construct: made in house; host or cells: High-Five insect cells (Invitrogen), recombinant baculovirus; total membrane vesicles
Experimental: High-Five insect cells (Invitrogen) were infected with recombinant baculovirus carrying mouse P–gp (mP–gp) gene (Abcb1a). Membrane vesicles were prepared by hypotonic lysis of the insect cells, followed by ultracentrifugation to collect the membrane vesicles, as described in detail in reference. The native membranes obtained were suspended in storage buffer (45 mM Tris-HCl pH 7.5, 45 mM D-mannitol, 1.8 mM EGTA, 0.45% v/v aprotinin, 1.8 mM DTT, 0.9 mM AEBSF, and 10% v/v glycerol), aliquoted, and stored at −80 °C or in liquid nitrogen until use. The concentration of protein in the native membranes was quantified by the Sherman and Weismann method using Amido Black B dye.
The ATPase activity of P–gp in the High-Five insect cell membranes was measured by the end point Pi release assays, as described earlier with minor modifications. Native membranes were diluted in ATPase assay buffer (final concentrations: 41.2 mM Tris-MES pH = 6.8, 50 mM KCl, 5 mM NaN3, 2 mM EGTA, 1.03 mM Ouabain, 2 mM DTT, and 10 mM MgCl2), and the modulators were added from stocks in DMSO (final DMSO 1% v/v). The final concentration of protein was quantified, being ca. 0.1 mg/mL. Four samples were prepared at each modulator concentration, containing ATP at 5 mM, two of which also contained vanadate at 0.3 mM. P–gp specific activity was measured as vanadate-sensitive ATPase activity. The basal rate of ATP hydrolysis was 67 ± 4 nmol Pi mgP^−1 min^−1, with 37 ± 4 nmol Pi mgP^−1 min^−1 being sensitive to vanadate. The results obtained for the effect of the modulators on the ATPase activity in the presence and absence of vanadate are shown in the Supplementary Information (Figure S1).
The results were then analyzed with the formalism derived in this manuscript considering the distribution of the modulator in the distinct environments (aqueous phase, lipid bilayer and P-gp) and several equal and independent binding sites in P-gp’s binding pocket, Equations (3)–(9). The best fit was obtained with nonlinear least-square analysis using Microsoft Excel.
For the correct analysis of the results, the distribution of the amphiphiles in the distinct environments (aqueous media, lipid bilayer, and P–gp) must be considered. In addition, excess ligand should not be assumed. When considering that P–gp has several binding sites, the kinetic scheme that describes P–gp saturation with ligand is given by Equation (5). For details, see, e.g., references. (5) LW↔KPW→LbLLb LLb=KPW→LbLW VLb/VWLW+P↔β1PL1 PL1=β1PLWi LW+P↔βiPLi PLi=βiPLW^i n LW+P↔βnPLn PLn=βnPLW^n
The overall ATPase activity at each ligand concentration is calculated from the concentration of each protein species PLi and the corresponding ATPase activity Vi , (9) V=V0+∑i=1nPLi Vi
This formalism was used to describe the effect of the NBD amphiphiles on P–gp’s ATPase activity, considering a distinct ATPase activity for P–gp with a different number of amphiphile molecules in the binding pocket.

mP–gp = biological target: T2, mP–gp (Mus musculus, UniProt P21447); test: Photolabeling of P–gp with [125I]-IAAP / IAAP displacement; type: binding
T2 construct: made in house; host or cells: High-Five insect cells (Invitrogen), recombinant baculovirus; total membrane vesicles
Experimental: The native membranes of High-Five insect cells expressing mP–gp (1.0 mg/mL) were incubated at room temperature with the indicated concentrations of the inhibitor for 5 min. IAAP (5 to 7 nM) was later added, and the reaction mixture was further incubated for 5 min under subdued light. The samples were photocross-linked with 366 nm UV light for 10 min at room temperature, followed by electrophoresis and quantification, as described previously. The raw data are shown in the Supplementary Information (Figure S4). The results were first analyzed with the usual equation, considering the total concentration of IAAP and NBD amphiphile, as well as competitive inhibition of IAAP binding, see Supplementary Information (Equation (S2)). The dissociation constant considered for IAAP was taken from the literature, 412 nM [15]. The results were also analyzed with a formalism derived in this manuscript considering the distribution of the NBD amphiphile in the distinct environments (aqueous phase, lipid bilayer, and P–gp), the distribution of IAAP between the aqueous media and P–gp, and several equal and independent binding sites in P–gp’s binding pocket, Equation (10).
In this assay, in addition to the binding of the NBD amphiphiles to P–gp binding pocket, it is also necessary to consider the binding of IAAP. The concentration of IAAP used in the assay (5 nM) is several orders of magnitude smaller than that of the amphiphiles in study, and it is also smaller than the total concentration of P–gp (59 nM). Therefore, Equation (8) may be used to calculate the concentration of free ligand and protein. The fraction of IAAP bound to P–gp may then be calculated from Equation (10), where P^* is the concentration of P–gp available for IAAP binding. (10) IP/IT=−b−b^2−4ac/2aa=1; b=−1+KdIAAP/IT+P^*/IT; c=P^*/IT
The number of binding sites in P–gp binding pocket was varied from 1 to 5, and three situations were considered in the analysis: (i) full inhibition of IAAP binding when at least one NBD amphiphile is in the P–gp binding pocket ( i≥1 ), corresponding to P^*=P; (ii) inhibition of IAAP binding only when P–gp is fully saturated ( i=n ), corresponding to P^*=P+∑i=1n−1PLi; and (iii) an intermediate situation with IAAP displacement for i≥n−1 , corresponding to P^*=P+∑i=1n−2PLi .
The displacement of IAAP from P–gp binding pocket was calculated from Equation (11), where IP0 is the concentration of IAAP bound to P–gp in the absence of the NBD amphiphiles. (11) IAAP displacement %=100IP0−IP/IP0

T1 sequence (P21447 whole entry): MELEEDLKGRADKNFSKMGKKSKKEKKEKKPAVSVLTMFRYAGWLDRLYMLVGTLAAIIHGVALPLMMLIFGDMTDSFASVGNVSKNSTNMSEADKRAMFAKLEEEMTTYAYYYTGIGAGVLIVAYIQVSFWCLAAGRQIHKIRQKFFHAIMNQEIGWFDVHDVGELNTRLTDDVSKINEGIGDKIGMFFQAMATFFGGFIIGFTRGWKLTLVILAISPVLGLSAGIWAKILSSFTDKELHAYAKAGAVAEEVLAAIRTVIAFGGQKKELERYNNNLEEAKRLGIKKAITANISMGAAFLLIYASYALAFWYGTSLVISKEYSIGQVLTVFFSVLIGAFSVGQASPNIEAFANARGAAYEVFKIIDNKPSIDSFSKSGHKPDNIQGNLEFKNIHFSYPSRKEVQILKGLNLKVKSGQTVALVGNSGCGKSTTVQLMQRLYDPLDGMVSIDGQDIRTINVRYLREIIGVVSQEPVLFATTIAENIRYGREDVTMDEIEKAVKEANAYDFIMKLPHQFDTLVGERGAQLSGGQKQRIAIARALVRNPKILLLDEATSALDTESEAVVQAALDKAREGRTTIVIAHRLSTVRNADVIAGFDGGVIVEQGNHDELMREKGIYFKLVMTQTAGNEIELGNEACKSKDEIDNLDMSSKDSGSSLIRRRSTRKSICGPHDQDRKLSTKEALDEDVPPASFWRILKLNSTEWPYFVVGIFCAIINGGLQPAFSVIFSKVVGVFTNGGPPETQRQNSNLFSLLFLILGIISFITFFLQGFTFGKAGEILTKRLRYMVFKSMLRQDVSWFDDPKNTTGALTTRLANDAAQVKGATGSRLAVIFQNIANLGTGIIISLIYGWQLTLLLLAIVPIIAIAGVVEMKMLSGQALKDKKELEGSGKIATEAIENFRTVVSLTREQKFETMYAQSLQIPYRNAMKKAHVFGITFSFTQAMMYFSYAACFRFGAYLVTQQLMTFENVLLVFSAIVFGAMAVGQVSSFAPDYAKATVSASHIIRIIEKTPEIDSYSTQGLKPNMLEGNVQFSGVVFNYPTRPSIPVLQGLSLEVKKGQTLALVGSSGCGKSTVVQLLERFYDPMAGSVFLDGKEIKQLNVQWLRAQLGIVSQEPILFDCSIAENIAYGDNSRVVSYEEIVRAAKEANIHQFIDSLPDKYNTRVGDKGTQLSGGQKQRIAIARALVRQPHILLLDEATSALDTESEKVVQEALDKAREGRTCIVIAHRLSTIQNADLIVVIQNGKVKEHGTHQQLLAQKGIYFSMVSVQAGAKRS
T2 sequence (P21447 whole entry): as above

**Q.** How did the Kd (mouse P–gp (mP–gp); Equation (9), local concentrations, n = 1 binding sites, read-out: Kd, microscopic dissociation constant) turn out when `CCCCNc1ccc([N+](=O)[O-])c2nonc12` [NBD–C4] was run?
**A.** 75 µM

**Q.** What about the Kd (mouse P–gp (mP–gp); Equation (9), local concentrations, n = 2 binding sites, read-out: Kd, microscopic dissociation constant) of the same compound?
**A.** 18 µM

**Q.** And the Kd (mouse P–gp (mP–gp); Equation (9), local concentrations, n = 3 binding sites, read-out: Kd, microscopic dissociation constant)?
**A.** 11 µM

**Q.** And the Kd (mouse P–gp (mP–gp); Equation (9), local concentrations, n = 4 binding sites, read-out: Kd, microscopic dissociation constant)?
**A.** 7 µM

**Q.** And the Kd (mouse P–gp (mP–gp); Equation (9), local concentrations, n = 5 binding sites, read-out: Kd, microscopic dissociation constant)?
**A.** 9 µM

**Q.** What about the “V1, ATPase activity of P–gp with 1 amphiphile bound” value (mouse P–gp (mP–gp); Equation (9), n = 1) of the same compound?
**A.** 703%

**Q.** What about the “V1, ATPase activity of P–gp with 1 amphiphile bound” value (mouse P–gp (mP–gp); Equation (9), n = 2) of the same compound?
**A.** 100%

**Q.** And the “V2, ATPase activity of P–gp with 2 amphiphiles bound” value (mouse P–gp (mP–gp); Equation (9), n = 2)?
**A.** 535%

**Q.** And the “V1, ATPase activity of P–gp with 1 amphiphile bound” value (mouse P–gp (mP–gp); Equation (9), n = 3)?
**A.** 109%

**Q.** What about the “V2, ATPase activity of P–gp with 2 amphiphiles bound” value (mouse P–gp (mP–gp); Equation (9), n = 3) of the same compound?
**A.** 109%

**Q.** And the “V3, ATPase activity of P–gp with 3 amphiphiles bound” value (mouse P–gp (mP–gp); Equation (9), n = 3)?
**A.** 512%

**Q.** What about the Kd (mouse P–gp (mP–gp); Equation (9), n = 3, read-out: β1, macroscopic binding constant of the first ligand (converted)) of the same compound?
**A.** 3.57 µM

**Q.** What about the “V1, ATPase activity of P–gp with 1 amphiphile bound” value (mouse P–gp (mP–gp); Equation (9), n = 4) of the same compound?
**A.** 110%

**Q.** What about the “V2, ATPase activity of P–gp with 2 amphiphiles bound” value (mouse P–gp (mP–gp); Equation (9), n = 4) of the same compound?
**A.** 110%

**Q.** And the “V3, ATPase activity of P–gp with 3 amphiphiles bound” value (mouse P–gp (mP–gp); Equation (9), n = 4)?
**A.** 110%

**Q.** And the “V4, ATPase activity of P–gp with 4 amphiphiles bound” value (mouse P–gp (mP–gp); Equation (9), n = 4)?
**A.** 501%

**Q.** What about the Kd (mouse P–gp (mP–gp); Equation (9), n = 4, read-out: β1, macroscopic binding constant of the first ligand (converted)) of the same compound?
**A.** 1.85 µM

**Q.** What about the “V1, ATPase activity of P–gp with 1 amphiphile bound” value (mouse P–gp (mP–gp); Equation (9), n = 5) of the same compound?
**A.** 110%

**Q.** And the “V2, ATPase activity of P–gp with 2 amphiphiles bound” value (mouse P–gp (mP–gp); Equation (9), n = 5)?
**A.** 110%

**Q.** What about the “V3, ATPase activity of P–gp with 3 amphiphiles bound” value (mouse P–gp (mP–gp); Equation (9), n = 5) of the same compound?
**A.** 110%

**Q.** And the “V4, ATPase activity of P–gp with 4 amphiphiles bound” value (mouse P–gp (mP–gp); Equation (9), n = 5)?
**A.** 259%

**Q.** And the “V5, ATPase activity of P–gp with 5 amphiphiles bound” value (mouse P–gp (mP–gp); Equation (9), n = 5)?
**A.** 491%

**Q.** And the Kd (mouse P–gp (mP–gp); Equation (9), n = 5, read-out: β1, macroscopic binding constant of the first ligand (converted))?
**A.** 1.82 µM

**Q.** And the “K2, dissociation constant for P–gp inhibition” value (mouse P–gp (mP–gp); Equation (S1), total modulator concentration, constraint K1≤K2 for NBD–C8 and NBD–LysoMPE, [75% confidence interval])?
**A.** outside the concentration range studied

**Q.** What about the Kd (mouse P–gp (mP–gp); Equation (S1), total modulator concentration, constraint K1≤K2 for NBD–C8 and NBD–LysoMPE, [75% confidence interval], read-out: K2, dissociation constant for P–gp inhibition) of the same compound?
**A.** > 60 µM

**Q.** What about the Emax (mouse P–gp (mP–gp); Equation (S1), only activation for NBD–C4, constraint K1≤K2 for NBD–C8 and NBD–LysoMPE, [75% confidence interval], read-out: V1, maximum activation) of the same compound?
**A.** 734%

**Q.** And the “Effect on P–gp ATPase activity” value (mouse P–gp (mP–gp); native membranes, Figure 1)?
**A.** activation

**Q.** What about the Ki (mP–gp; Equation (S2), total concentrations, native membranes 1.0 mg/mL, read-out: dissociation constant, competitive inhibition of IAAP binding) of the same compound?
**A.** 14 µM

**Q.** And the “number of binding sites n giving agreement between the two estimates of the partition coefficient” value (mP–gp; re-analysis of IAAP displacement, IAAP displaced for i ≥ n−1)?
**A.** 5
